From BindingDB's records for doi:10.1016/j.bmcl.2012.12.095 (Astrazeneca, 2013)

Assay: Antagonist activity at CCR1 receptor in human THP1 cells assessed as inhibition of MIP-1alpha-induced chemotaxis after 2 hrs by fluorescence assay

Compound: CC(=O)Nc1ccc(O)cc1OC[C@@H](N)CN1CCC2(CC1)Cc1ccccc1O2
- IC50: 68 nM
